Source: article PMC7463582, “Modulation and Protection Effects of Antioxidant Compounds against Oxidant Induced Developmental Toxicity in Zebrafish” (Antioxidants, 2020)
Structures can show the parent of a compound that is named as a salt.

How the values were obtained:
[1] = tested on: zebrafish embryos; test: Zebrafish embryo test: lethality and dysmorphogenesis after exposure to a single oxidative stress-related compound; assay type: in vivo, Zebrafish (Danio rerio); details: for EC50: read-out: EC50 (effective concentration 50 for dysmorphogenesis)
Method: (§1) To characterize the effects on embryonic development produced by compounds related to OS, ZF embryos were exposed to OS inducers, modulators of antioxidant status and antioxidants. For compounds which were dissolved in DMSO and diluted with Danieau’s buffer, a vehicle negative control group with 0.05% DMSO in 0.3× Danieau’s buffer was assayed.
(§2) From 26 to 50 hpf, embryos were incubated with 0.3× Danieau’s buffer with or without DMSO, depending on the dissolution of the compound of study.
(§3) Exposure to OS inducers was conducted from 26 to 50 hpf to select the working concentrations of these compounds for the experimental design. In this case, from 2 to 26 hpf, embryos were incubated with Danieau’s buffer with or without DMSO, depending on the dissolution of the compound of study.
(§4) Exposure of ZF embryos was semi-static and was carried out in 6-well plates (Greiner Bio-one, Frickenhausen, Germany). Ten embryos per group were selected and randomly distributed into the wells and filled with 5mL of the corresponding solution of the compound. Embryos were incubated at 26 ± 1 °C with a dark–light cycle of 10–14 h. Renewal of the medium and of the solutions was made every 24 h. Evaluation of the embryos was performed at different time points. Lethality was determined at 8, 26, and 50 hpf based on egg coagulation, the absence of tail detachment, or somite formation and the absence of heartbeat. Dysmorphogenic effects were evaluated at 50 hpf by the total morphological score system described by. For each compound of study, at least three independent experiments were performed using embryos from different spawning events (n = 3).
(§5) The percentage of lethality and of dysmorphogenesis was calculated per compound at every tested concentration, and the concentration–response curves for these effects were plotted.

[2] = as above; assay type: in vivo, Zebrafish (Danio rerio); details: zebrafish, in vivo, read-out: LC50 (lethal concentration 50)
Method: as §1, §2, §3, §4, §5

[3] = tested on: zebrafish embryos; details: for Change of dysmorphogenic effects of LPS / Shift of the LPS lethality concentration–effect curve / Shift of the TCHQ concentration–response curves for lethality and dysmorphogenesis / Shift of the tBOOH concentration–response curves (lethality and dysmorphogenesis) / Mortality of embryos exposed to tBOOH after pre-exposure: pre-exposure to the modulator at MTC; for Change of dysmorphogenic effects of LPS / Shift of the LPS lethality concentration–effect curve: then LPS, versus LPS alone; for Shift of the TCHQ concentration–response curves for lethality and dysmorphogenesis: then TCHQ, versus TCHQ alone; for Shift of the tBOOH concentration–response curves (lethality and dysmorphogenesis) / Mortality of embryos exposed to tBOOH after pre-exposure: then tBOOH; for Shift of the tBOOH concentration–response curves (lethality and dysmorphogenesis): versus tBOOH alone
[4] = tested on: zebrafish embryos; test: animal or person; details: Danio rerio
[5] = in vivo; details: zebrafish
[6] = tested on: zebrafish embryos; test: animal or person; details: Danio rerio, read-out: EC50 (95% CI) for dysmorphogenesis of tBOOH
[7] = exposure window 2–26 hpf, not calculated, reason in footnote
[8] = Danio rerio, exposure window 2–26 hpf, evaluated at 50 hpf

Molecule	MTC (maximum tolerable concentration) ([1]; exposure window 2–26 hpf)	LC50 [2, 7]	Change of dysmorphogenic effects of LPS [3]	Shift of the LPS lethality concentration–effect curve [3]	Shift of the TCHQ concentration–response curves for lethality and dysmorphogenesis [3]	Shift of the tBOOH concentration–response curves (lethality and dysmorphogenesis) [3]	EC50 [1, 8]	also measured
O=c1c(O)c(-c2ccc(O)c(O)c2)oc2cc(O)cc(O)c12 [Quercetin, quercetin hydrate]	20 µM	> 30 µM	–	–	–	–	–	–
CCCCS(=N)(=O)CCC(N)C(=O)O (racemic) [DL-buthionine sulfoximine (BSO), DL-buthionine sulfoximine]	50 µM	–	no significant effects were observed	shifted the lethality concentration–effect curves significantly	statistically significant drift in the concentration–effect curves for lethality and dysmorphogenesis to lower concentrations of TCHQ	a significant shift in the concentration–response curves to lower concentrations of tBOOH	–	EC50 ([1]; exposure window 2–26 hpf, evaluated at 50 hpf): 2720 µM
Oc1c(Cl)c(Cl)c(O)c(Cl)c1Cl [Tetrachlorohydroquinone (TCHQ), Tetrachlorohydroquinone]	–	–	–	–	–	–	–	EC50 ([4]; read-out: EC50 (95% CI) for dysmorphogenesis of TCHQ): 8.84 µM; LC50 [5]: 15.2 µM; EC50 ([1]; Danio rerio): 3.9 µM; Compound-specific dysmorphogenic effect ([1]; exposure 26–50 hpf): produced an effect in the pigmentation of the embryos; LC50 ([2]; exposure window 26–50 hpf): 16 µM
(±)-α-tocopherol [Vit. E]	100 µM	–	–	–	–	–	–	LC50 ([1]; exposure window 2–26 hpf, not calculated, reason in footnote, read-out: LC50 (lethal concentration 50)): > 30 µM
CC(C)(C)OO [Tert-butyl hydroperoxide (tBOOH), Tert-butyl hydroperoxide]	–	–	–	–	–	–	–	EC50 [6]: 1640 µM; EC50 ([4]; read-out: EC50 (95% CI) for dysmorphogenesis of tBOOH): 1640 µM; EC50 ([1]; Danio rerio, exposure window 26–50 hpf, evaluated at 50 hpf): 1600 µM
COC(=O)[C@@H](N)CCCNC(N)=N[N+](=O)[O-] [Nω-nitro L-arginine methyl ester hydrochloride]	5 µM	> 100 µM	significant reduction in dysmorphogenic effects	shifted the lethality concentration–effect curves significantly	significantly shifted to higher concentrations of TCHQ	significantly drifted the tBOOH concentration–response curves to higher concentrations	44.4 µM	Mortality of embryos exposed to tBOOH after pre-exposure [3]: no significant effects in mortality of the embryos were observed
CC(=O)N[C@@H](CS)C(=O)O [N-acetyl-L-cysteine (NAC), N-acetyl-L-cysteine]	250 µM	–	no significant effects were observed	–	–	–	921 µM	Mortality of embryos exposed to tBOOH after pre-exposure [3]: no significant effects in mortality of the embryos were observed; LC50 (95% CI) of LPS after pre-exposure to the modulator ([3]; zebrafish, in vivo, pH 7.4): 51.6 µg/mL * (48.8–54.5); LC50 (95% CI) of TCHQ after pre-exposure to the modulator ([3]; zebrafish, in vivo, pH 7.4): 19.6 µM * (16.6–23.3); LC50 ([2]; exposure window 2–26 hpf): 1870 µM
CCOC(=O)/C=C\C(=O)OCC [Diethyl maleate (DEM), diethyl maleate]	0.5 µM	< 100 µM	no significant effects were observed	shifted the lethality concentration–effect curves significantly	statistically significant drift in the concentration–effect curves for lethality and dysmorphogenesis to lower concentrations of TCHQ	a significant shift in the concentration–response curves to lower concentrations of tBOOH	1.5 µM	–
